EP4722207A1, “OXOISOINDOLINYL-SUBSTITUTED TETRAHYDROPYRIMIDINEDIONE DERIVATIVE AND USE THEREOF” (Gluetacs Therapeutics (Shanghai) Co., Ltd., priority 2023, dated 2024)

Assays:
[1] = tested on: MDA-MB-231; test: Cell viability assay (CellTiter-Meiluncell Luminescent), tumor cell proliferation, MDA-MB-231; conditions: Homo sapiens, MDA-MB-231, 96 h; for inhibition at 0.01 µM: read-out: Inhibition Rate at 10 nM (%); for inhibition at 0.5 µM: read-out: Inhibition Rate at 500 nM (%)
[2] = target: T1, GSPT1 (Homo sapiens, UniProt P15170+Q96SW2); test: Western-blot assay, substrate protein degradation in hPBMCs: GSPT1; format: cell-based; conditions: 24 hours of compound treatment, 50 nM and 500 nM
T1 construct: effects of the compounds of the present disclosure on the expression of target proteins in cells; endogenous in cells; host or cells: human PBMCs (hPBMCs)

[3] = tested on: H2228; test: Cell viability assay (CellTiter-Meiluncell Luminescent), tumor cell proliferation, H2228; conditions: Homo sapiens, NCI-H2228, 96 h; for inhibition at 0.01 µM: read-out: Inhibition Rate at 10 nM (%); for inhibition at 0.5 µM: read-out: Inhibition Rate at 500 nM (%)
[4] = target: T2, IKZF1 (Homo sapiens, UniProt Q13422+Q96SW2); test: Western-blot assay, substrate protein degradation in hPBMCs: IKZF1; format: cell-based; conditions: 24 hours of compound treatment, 50 nM and 500 nM
T2 construct: effects of the compounds of the present disclosure on the expression of target proteins in cells; endogenous in cells; host or cells: human PBMCs (hPBMCs)

[5] = target: T3, IKZF2 (Homo sapiens, UniProt Q96SW2+Q9UKS7); test: Western-blot assay, substrate protein degradation in hPBMCs: IKZF2; format: cell-based; conditions: 24 hours of compound treatment, 50 nM and 500 nM
T3 construct: effects of the compounds of the present disclosure on the expression of target proteins in cells; endogenous in cells; host or cells: human PBMCs (hPBMCs)

[6] = target: T4, CK1α (Homo sapiens, UniProt P48729+Q96SW2); test: Western-blot assay, substrate protein degradation in hPBMCs: CK1α; format: cell-based; conditions: 24 hours of compound treatment, 50 nM and 500 nM
T4 construct: effects of the compounds of the present disclosure on the expression of target proteins in cells; endogenous in cells; host or cells: human PBMCs (hPBMCs)

[7] = target: T5, IKZF3 (Homo sapiens, UniProt Q96SW2+Q9UKT9); test: Western-blot assay, substrate protein degradation in hPBMCs: IKZF3; format: cell-based; conditions: 24 hours of compound treatment, 50 nM and 500 nM
T5 construct: effects of the compounds of the present disclosure on the expression of target proteins in cells; endogenous in cells; host or cells: human PBMCs (hPBMCs)

[8] = target: T6, WEE1 (Homo sapiens, UniProt P30291+Q96SW2); test: Western-blot assay, substrate protein degradation in hPBMCs: WEE1; format: cell-based; conditions: 24 hours of compound treatment, 50 nM and 500 nM
T6 construct: effects of the compounds of the present disclosure on the expression of target proteins in cells; endogenous in cells; host or cells: human PBMCs (hPBMCs)

[9] = tested on: H292; test: Cell viability assay (CellTiter-Meiluncell Luminescent), tumor cell proliferation, H292; conditions: Homo sapiens, NCI-H292, 96 h; for inhibition at 0.01 µM: read-out: Inhibition Rate at 10 nM (%); for inhibition at 0.5 µM: read-out: Inhibition Rate at 500 nM (%)
[10] = tested on: MV-4-11; test: Cell viability assay (CellTiter-Meiluncell Luminescent), tumor cell proliferation, MV-4-11; conditions: Homo sapiens, MV4-11, 96 h; for inhibition at 0.01 µM: read-out: Inhibition Rate at 10 nM (%); for inhibition at 0.5 µM: read-out: Inhibition Rate at 500 nM (%)
[11] = tested on: MM.1S; test: Cell viability assay (CellTiter-Meiluncell Luminescent), tumor cell proliferation, MM.1S; conditions: Homo sapiens, MM1.S, 96 h; for inhibition at 0.01 µM: read-out: Inhibition Rate at 10 nM (%); for inhibition at 0.5 µM: read-out: Inhibition Rate at 500 nM (%)

T6 sequence (P30291 whole entry): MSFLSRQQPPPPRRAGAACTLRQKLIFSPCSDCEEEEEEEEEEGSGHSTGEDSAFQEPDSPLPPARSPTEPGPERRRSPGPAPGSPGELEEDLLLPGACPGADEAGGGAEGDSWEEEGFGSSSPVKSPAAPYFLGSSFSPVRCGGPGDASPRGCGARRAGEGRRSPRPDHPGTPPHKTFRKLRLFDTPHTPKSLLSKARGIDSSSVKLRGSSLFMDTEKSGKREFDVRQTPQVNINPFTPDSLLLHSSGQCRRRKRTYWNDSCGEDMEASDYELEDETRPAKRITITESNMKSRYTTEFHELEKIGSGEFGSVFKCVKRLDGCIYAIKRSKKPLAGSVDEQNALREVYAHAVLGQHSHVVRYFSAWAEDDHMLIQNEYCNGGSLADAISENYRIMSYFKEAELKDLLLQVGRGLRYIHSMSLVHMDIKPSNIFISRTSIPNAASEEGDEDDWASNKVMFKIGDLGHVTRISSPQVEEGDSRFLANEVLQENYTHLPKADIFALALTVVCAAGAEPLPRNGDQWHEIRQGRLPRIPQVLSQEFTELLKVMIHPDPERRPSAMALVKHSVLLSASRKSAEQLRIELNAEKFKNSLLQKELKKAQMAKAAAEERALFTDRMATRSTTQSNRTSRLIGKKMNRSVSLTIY
T6 sequence (Q96SW2 whole entry): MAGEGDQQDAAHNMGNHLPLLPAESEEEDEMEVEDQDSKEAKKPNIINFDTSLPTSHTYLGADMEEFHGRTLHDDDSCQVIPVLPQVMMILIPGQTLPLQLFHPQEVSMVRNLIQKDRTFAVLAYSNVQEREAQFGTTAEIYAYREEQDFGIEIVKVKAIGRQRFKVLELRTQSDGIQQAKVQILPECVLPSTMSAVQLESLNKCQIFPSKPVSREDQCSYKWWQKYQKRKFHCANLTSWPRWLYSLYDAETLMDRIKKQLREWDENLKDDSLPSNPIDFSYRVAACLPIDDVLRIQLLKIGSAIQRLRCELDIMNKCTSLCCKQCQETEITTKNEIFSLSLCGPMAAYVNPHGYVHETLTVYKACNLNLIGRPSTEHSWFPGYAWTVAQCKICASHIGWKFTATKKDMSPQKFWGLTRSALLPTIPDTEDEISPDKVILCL
T6 sequence (Q16531 whole entry partner): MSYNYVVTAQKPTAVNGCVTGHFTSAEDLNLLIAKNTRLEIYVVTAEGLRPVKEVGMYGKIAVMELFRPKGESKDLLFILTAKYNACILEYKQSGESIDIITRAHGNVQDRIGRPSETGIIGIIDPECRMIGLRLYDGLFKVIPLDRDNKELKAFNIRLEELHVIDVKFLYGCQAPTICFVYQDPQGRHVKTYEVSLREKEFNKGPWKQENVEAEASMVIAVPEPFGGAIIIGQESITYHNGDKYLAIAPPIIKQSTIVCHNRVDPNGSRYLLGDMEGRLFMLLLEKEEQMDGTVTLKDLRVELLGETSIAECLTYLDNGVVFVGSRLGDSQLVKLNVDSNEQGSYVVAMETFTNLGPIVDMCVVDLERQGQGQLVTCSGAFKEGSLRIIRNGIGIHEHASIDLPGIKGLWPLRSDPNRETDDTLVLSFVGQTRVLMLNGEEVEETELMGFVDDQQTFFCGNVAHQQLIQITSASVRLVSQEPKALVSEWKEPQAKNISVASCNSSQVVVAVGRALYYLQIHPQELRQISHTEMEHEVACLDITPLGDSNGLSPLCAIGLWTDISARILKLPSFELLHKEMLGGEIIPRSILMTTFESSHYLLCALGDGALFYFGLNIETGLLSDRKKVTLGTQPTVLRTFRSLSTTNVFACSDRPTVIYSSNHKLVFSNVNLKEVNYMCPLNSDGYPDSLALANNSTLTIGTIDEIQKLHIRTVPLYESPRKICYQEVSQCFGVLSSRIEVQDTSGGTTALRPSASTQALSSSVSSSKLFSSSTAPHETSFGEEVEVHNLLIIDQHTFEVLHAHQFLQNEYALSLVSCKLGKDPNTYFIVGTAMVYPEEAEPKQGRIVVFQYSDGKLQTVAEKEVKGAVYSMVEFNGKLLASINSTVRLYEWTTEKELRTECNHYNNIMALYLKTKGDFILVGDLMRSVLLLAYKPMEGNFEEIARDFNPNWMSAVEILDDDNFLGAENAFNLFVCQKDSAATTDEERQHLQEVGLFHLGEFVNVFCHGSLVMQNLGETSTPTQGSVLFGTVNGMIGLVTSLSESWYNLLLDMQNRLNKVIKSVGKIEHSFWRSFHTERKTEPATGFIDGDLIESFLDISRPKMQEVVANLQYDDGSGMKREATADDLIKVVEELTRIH
T4 sequence (P48729 whole entry): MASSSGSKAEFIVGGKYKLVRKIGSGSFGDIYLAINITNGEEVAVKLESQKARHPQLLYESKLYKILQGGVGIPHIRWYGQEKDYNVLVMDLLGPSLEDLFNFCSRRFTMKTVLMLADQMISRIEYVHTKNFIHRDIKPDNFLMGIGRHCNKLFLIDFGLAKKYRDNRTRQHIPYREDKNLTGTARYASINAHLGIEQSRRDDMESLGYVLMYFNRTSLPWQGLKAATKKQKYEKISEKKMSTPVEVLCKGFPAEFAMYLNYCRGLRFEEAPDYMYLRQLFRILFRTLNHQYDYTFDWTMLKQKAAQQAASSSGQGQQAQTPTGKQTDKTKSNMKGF
T4 sequence (Q96SW2 whole entry): as the sequence (Q96SW2 whole entry) above
T4 sequence (Q16531 whole entry partner): as the sequence (Q16531 whole entry partner) above
T2 sequence (Q13422 whole entry): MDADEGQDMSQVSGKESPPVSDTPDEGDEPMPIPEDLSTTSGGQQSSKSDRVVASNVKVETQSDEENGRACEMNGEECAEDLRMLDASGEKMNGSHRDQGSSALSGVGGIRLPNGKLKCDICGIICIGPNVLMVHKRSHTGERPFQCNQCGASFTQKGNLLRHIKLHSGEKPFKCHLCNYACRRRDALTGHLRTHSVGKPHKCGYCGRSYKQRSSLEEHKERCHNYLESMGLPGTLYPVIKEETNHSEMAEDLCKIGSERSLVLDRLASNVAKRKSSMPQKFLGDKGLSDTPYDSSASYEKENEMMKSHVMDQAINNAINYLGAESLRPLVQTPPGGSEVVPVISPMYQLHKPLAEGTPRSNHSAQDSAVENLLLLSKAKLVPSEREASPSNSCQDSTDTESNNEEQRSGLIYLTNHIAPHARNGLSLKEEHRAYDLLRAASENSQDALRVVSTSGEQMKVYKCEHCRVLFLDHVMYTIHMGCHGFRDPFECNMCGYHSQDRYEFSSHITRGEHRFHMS
T2 sequence (Q96SW2 whole entry): as the sequence (Q96SW2 whole entry) above
T2 sequence (Q16531 whole entry partner): as the sequence (Q16531 whole entry partner) above
T3 sequence (Q9UKS7 whole entry): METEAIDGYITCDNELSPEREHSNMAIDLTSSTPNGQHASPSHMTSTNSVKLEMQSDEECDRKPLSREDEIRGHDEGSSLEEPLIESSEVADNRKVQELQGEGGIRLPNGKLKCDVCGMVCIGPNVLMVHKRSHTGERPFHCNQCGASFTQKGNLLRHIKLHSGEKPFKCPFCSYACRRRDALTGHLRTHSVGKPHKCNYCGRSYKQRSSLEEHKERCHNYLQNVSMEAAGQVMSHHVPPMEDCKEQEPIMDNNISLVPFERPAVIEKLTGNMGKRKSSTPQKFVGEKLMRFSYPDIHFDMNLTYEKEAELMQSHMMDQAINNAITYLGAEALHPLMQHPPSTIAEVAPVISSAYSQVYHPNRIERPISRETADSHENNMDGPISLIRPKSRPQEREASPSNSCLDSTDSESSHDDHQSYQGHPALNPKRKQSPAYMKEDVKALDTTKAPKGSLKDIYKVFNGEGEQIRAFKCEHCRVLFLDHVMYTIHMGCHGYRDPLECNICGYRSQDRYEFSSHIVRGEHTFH
T3 sequence (Q96SW2 whole entry): as the sequence (Q96SW2 whole entry) above
T3 sequence (Q16531 whole entry partner): as the sequence (Q16531 whole entry partner) above
T5 sequence (Q9UKT9 whole entry): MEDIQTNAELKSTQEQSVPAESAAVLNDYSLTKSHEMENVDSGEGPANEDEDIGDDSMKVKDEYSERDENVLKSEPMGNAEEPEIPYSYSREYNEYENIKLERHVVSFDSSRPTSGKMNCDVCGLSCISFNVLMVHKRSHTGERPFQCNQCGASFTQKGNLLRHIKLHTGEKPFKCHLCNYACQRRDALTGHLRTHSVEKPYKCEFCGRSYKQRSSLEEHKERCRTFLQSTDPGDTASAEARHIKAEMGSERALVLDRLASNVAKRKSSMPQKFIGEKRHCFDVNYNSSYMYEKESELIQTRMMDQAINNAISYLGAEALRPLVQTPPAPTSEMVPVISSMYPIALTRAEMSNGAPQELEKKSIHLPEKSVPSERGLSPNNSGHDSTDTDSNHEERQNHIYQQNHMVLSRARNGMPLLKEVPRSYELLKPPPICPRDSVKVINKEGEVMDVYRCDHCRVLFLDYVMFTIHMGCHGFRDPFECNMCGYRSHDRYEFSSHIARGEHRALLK
T5 sequence (Q96SW2 whole entry): as the sequence (Q96SW2 whole entry) above
T5 sequence (Q16531 whole entry partner): as the sequence (Q16531 whole entry partner) above

Compound | inhibition at 0.01 µM [1] [%] | inhibition at 0.5 µM [1] [%] | substrate protein remaining % GSPT1 [2] | inhibition at 0.01 µM [3] [%] | inhibition at 0.5 µM [3] [%] | substrate protein remaining % IKZF1 [4] | substrate protein remaining % IKZF2 [5] | substrate protein remaining % CK1α [6] | substrate protein remaining % IKZF3 [7] | substrate protein remaining % WEE1 [8] | inhibition at 0.01 µM [9] [%] | inhibition at 0.5 µM [9] [%] | inhibition at 0.01 µM [10] [%] | inhibition at 0.5 µM [10] [%] | inhibition at 0.01 µM [11] [%] | inhibition at 0.5 µM [11] [%]
Cc1sc2ncnc(N3CCN(Cc4ccc5c(c4)CN(N4CCC(=O)NC4=O)C5=O)CC3)c2c1C [GT-08061, 1-(5-((4-(5,6-dimethylthieno[2,3-d]pyrimidin-4-yl)piperazin-1-yl)methyl)-1-oxoisoindolin-2-yl)dihydropyrimidine-2,4(1H,3H)-dione] | 10 to 15 | 18 to 25 | B (80%< substrate protein remaining %≤ 100%) | 10 to 15 | 25 to 30 | B (80%< substrate protein remaining %≤ 100%) | A (0% ≤ substrate protein remaining % ≤ 80%) | B (80%< substrate protein remaining %≤ 100%) | A (0% ≤ substrate protein remaining % ≤ 80%) | B (80%< substrate protein remaining %≤ 100%) | – | – | – | – | – | –
O=C1CCN(N2Cc3cc(CN4CCC(c5ncnc6scc(-c7ccccc7)c56)CC4)ccc3C2=O)C(=O)N1 [GT-08086, 1-(1-oxo-5-((4-(5-phenylthieno[2,3-d]pyrimidin-4-yl)piperidin-1-yl)methyl)isoindolin-2-yl)dihydropyrimidine-2,4(1H,3H)-dione] | 25 to 40 | 25 to 40 | – | 20 to 25 | 20 to 25 | – | – | – | – | – | 20 to 40 | 20 to 40 | – | – | – | –
CC(C)c1cc2c(N3CCN(Cc4ccc5c(c4)C(=O)N(N4CCC(=O)NC4=O)C5=O)CC3)ncnc2s1 [GT-08093, 2-(2,4-dioxotetrahydropyrimidin-1(2H)-yl)-5-((4-(6-isopropylthieno[2,3-d]pyrimidin-4-yl)piperazin-1-yl)methyl)isoindoline-1,3-dione] | – | – | A (0% ≤ substrate protein remaining % ≤ 80%) | 20 to 25 | 20 to 25 | B (80%< substrate protein remaining %≤ 100%) | B (80%< substrate protein remaining %≤ 100%) | A (0% ≤ substrate protein remaining % ≤ 80%) | B (80%< substrate protein remaining %≤ 100%) | A (0% ≤ substrate protein remaining % ≤ 80%) | 15 to 20 | 15 to 20 | 40 to 60 | 60 to 80 | – | –
O=C1CCN(N2C(=O)c3ccc(CN4CCN(c5ncnc6scc(-c7ccccc7)c56)CC4)cc3C2=O)C(=O)N1 [GT-08098, 2-(2,4-dioxotetrahydropyrimidin-1(2H)-yl)-5-((4-(5-phenylthieno[2,3-d]pyrimidin-4-yl)piperazin-1-yl)methyl)isoindoline-1,3-dione] | – | – | A (0% ≤ substrate protein remaining % ≤ 80%) | 10 to 15 | 25 to 30 | B (80%< substrate protein remaining %≤ 100%) | B (80%< substrate protein remaining %≤ 100%) | B (80%< substrate protein remaining %≤ 100%) | B (80%< substrate protein remaining %≤ 100%) | B (80%< substrate protein remaining %≤ 100%) | – | – | 18 to 25 | 18 to 25 | – | –
Cc1nc(N2CCN(Cc3ccc4c(c3)C(=O)N(N3CCC(=O)NC3=O)C4=O)CC2)c2c3c(sc2n1)CCC3 [GT-08104, 2-(2,4-dioxotetrahydropyrimidin-1(2H)-yl)-5-((4-(2-methyl-6,7-dihydro-5H-cyclopenta[4,5]thieno[2,3-d]pyrimidin-4-yl)piperazin-1-yl)methyl)isoindoline-1,3-dione] | – | – | A (0% ≤ substrate protein remaining % ≤ 80%) | – | – | B (80%< substrate protein remaining %≤ 100%) | A (0% ≤ substrate protein remaining % ≤ 80%) | B (80%< substrate protein remaining %≤ 100%) | A (0% ≤ substrate protein remaining % ≤ 80%) | A (0% ≤ substrate protein remaining % ≤ 80%) | – | – | 40 to 60 | 40 to 60 | 20 to 30 | 30 to 42
Cc1cc2c(C3=CCN(Cc4ccc5c(c4)CN(N4CCC(=O)NC4=O)C5=O)CC3)ncnc2s1 [GT-08157, 1-(5-((4-(6-methylthieno[2,3-d]pyrimidin-4-yl)-3,6-dihydropyridin-1(2H)-yl)methyl)-1-oxoisoindolin-2-yl)dihydropyrimidine-2,4(1H,3H)-dione] | 15 to 18 | 25 to 40 | – | – | – | – | – | – | – | – | 20 to 40 | 15 to 20 | 18 to 25 | 80 to 100 | -5 to 0 | 80 to 100
Cc1nc(C2=CCN(Cc3ccc4c(c3)CN(N3CCC(=O)NC3=O)C4=O)CC2)c2ccsc2n1 [GT-08175, 1-(5-((4-(2-methylthieno[2,3-d]pyrimidin-4-yl)-3,6-dihydropyridin-1(2H)-yl)methyl)-1-oxoisoindolin-2-yl)dihydropyrimidine-2,4(1H,3H)-dione] | – | – | – | – | – | – | – | – | – | – | – | – | 18 to 25 | 80 to 100 | -10 to -5 | 80 to 100
O=C1CCN(N2Cc3cc(CN4CC=C(c5ncnc6sc7c(c56)CCCC7)CC4)ccc3C2=O)C(=O)N1 [GT-08178, 1-(1-oxo-5-((4-(5,6,7,8-tetrahydrobenzo[4,5]thieno[2,3-d]pyrimidin-4-yl)-3,6-dihydropyridin-1(2H)-yl)methyl)isoindolin-2-yl)dihydropyrimidine-2,4(1H,3H)-dione] | 18 to 25 | 18 to 25 | – | – | – | – | – | – | – | – | 40 to 60 | 20 to 40 | 60 to 80 | 80 to 100 | 60 to 80 | 60 to 80
O=C1CCN(N2Cc3cc(CN4CC=C(c5ncc6ccsc6n5)CC4)ccc3C2=O)C(=O)N1 [GT-08438, 1-(1-oxo-5-((4-(thieno[2,3-d]pyrimidin-2-yl)-3,6-dihydropyridin-1(2H)-yl)methyl)isoindolin-2-yl)dihydropyrimidine-2,4(1H,3H)-dione] | – | – | A (0% ≤ substrate protein remaining % ≤ 80%) | – | – | A (0% ≤ substrate protein remaining % ≤ 80%) | B (80%< substrate protein remaining %≤ 100%) | B (80%< substrate protein remaining %≤ 100%) | A (0% ≤ substrate protein remaining % ≤ 80%) | A (0% ≤ substrate protein remaining % ≤ 80%) | 20 to 40 | 10 to 15 | – | – | 20 to 30 | 80 to 100
O=C1CCN(N2Cc3cc(CN4CCN(c5nc(N6CCOCC6)nc6ccsc56)CC4)ccc3C2=O)C(=O)N1 [GT-08446, 1-(5-((4-(2-morpholinothieno[3,2-d]pyrimidin-4-yl)piperazin-1-yl)methyl)-1-oxoisoindolin-2-yl)dihydropyrimidine-2,4(1H,3H)-dione] | – | – | A (0% ≤ substrate protein remaining % ≤ 80%) | – | – | B (80%< substrate protein remaining %≤ 100%) | B (80%< substrate protein remaining %≤ 100%) | B (80%< substrate protein remaining %≤ 100%) | A (0% ≤ substrate protein remaining % ≤ 80%) | B (80%< substrate protein remaining %≤ 100%) | 20 to 40 | 20 to 40 | – | – | 42 to 60 | 30 to 42
Cc1nc(C2=CCN(Cc3ccc4c(c3)C(=O)N(N3CCC(=O)NC3=O)C4=O)CC2)c2c(-c3ccccc3)csc2n1 [GT-08484, 2-(2,4-dioxotetrahydropyrimidin-1(2H)-yl)-5-((4-(2-methyl-5-phenylthieno[2,3-d]pyrimidin-4-yl)-3,6-dihydropyridin-1(2H)-yl)methyl)isoindoline-1,3-dione] | – | – | A (0% ≤ substrate protein remaining % ≤ 80%) | – | – | A (0% ≤ substrate protein remaining % ≤ 80%) | A (0% ≤ substrate protein remaining % ≤ 80%) | A (0% ≤ substrate protein remaining % ≤ 80%) | A (0% ≤ substrate protein remaining % ≤ 80%) | A (0% ≤ substrate protein remaining % ≤ 80%) | 20 to 40 | 15 to 20 | – | – | 42 to 60 | 20 to 30
